Measured values published in patent publication US9079913B2, “Spiro-oxindole MDM2 antagonists” (The Regents of the University of Michigan, priority 2009, dated 2015).
Read-outs that look alike come from different tables or passages of the source.

What was measured:
[1] = molecular target: recombinant human His-tagged MDM2 protein (residues 1-118) (Homo sapiens (Human), UniProt Q00987); assay: Fluorescence-polarization MDM2 binding assay;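 note: fluorescence polarization read after three hours of incubation in potassium phosphate buffer containing bovine gamma globulin and Triton X-100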
recombinant human His-tagged MDM2 protein (residues 1-118), sequence (Q00987 1-118): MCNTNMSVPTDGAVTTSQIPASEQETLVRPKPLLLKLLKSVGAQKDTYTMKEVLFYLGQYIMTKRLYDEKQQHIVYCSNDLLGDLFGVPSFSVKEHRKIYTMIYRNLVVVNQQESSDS

[2] = system: Isogenic HCT-116 colon cancer cell lines; assay: cells; assay type: cell-based;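 note: cells grown in 96-well plates in McCoy's 5A medium with 10% FBS, exposed to compound for 4 days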
Procedure: Cells were seeded in 96-well flat bottom cell culture plates at a density of 2−3×10^3 cells/well with compounds and incubated for 4 days.

[3] = system: cancer cell lines with wild-type p53 / mutated or deleted p53 (ATCC); assay: Cell growth assay (WST-8), other cancer cell lines; assay type: cell-based
[4] = Table 19A, FP binding assay, read-out: MDM2 IC50
[5] = Homo sapiens, HCT-116, read-out: HCT-116 (p53-/-) IC50, Table 19A, HCT-116 p53-/-, cell growth
[6] = Homo sapiens, HCT-116, read-out: HCT-116 (p53 wild-type) IC50, Table 19A, HCT-116 p53 wild-type, cell growth
[7] = Homo sapiens, LNCaP, Table 19A, LNCAP cells, p53 wild-type, cell growth, read-out: LNCAP (p53 wild-type) IC50
[8] = Homo sapiens, PC-3, Table 19A, PC-3 cells, deleted p53, cell growth, read-out: PC-3 (deleted p53) IC50
[9] = Table 19B, read-out: Binding affinities to MDM2 protein as determined by FP based assay IC50
[10] = Homo sapiens, HCT-116, read-out: Inhibition of cell growth IC50, HCT116 p53 KO, Table 19B, HCT116 p53 KO
[11] = Homo sapiens, HCT-116, read-out: Inhibition of cell growth IC50, HCT116 p53 WT, Table 19B, HCT116 p53 WT
[12] = Homo sapiens, LNCaP, Table 19B, LNCaP cells, read-out: Inhibition of cell growth IC50, LNCaP
[13] = Homo sapiens, PC-3, Table 19B, PC3 cells, read-out: Inhibition of cell growth IC50, PC3
[14] = Homo sapiens, SJSA-1, Table 19A, SJSA-1 cells, p53 wild-type, cell growth, read-out: SJSA-1 (p53 wild-type) IC50

Structure (SMILES)	IC50 [1, 4] [µM]	IC50 [2, 5] [µM]	IC50 [2, 6] [µM]	IC50 [3, 7] [µM]	IC50 [3, 8] [µM]	IC50 [3, 14] [µM]	other results
CC(C)(C)C[C@H]1N[C@@H](C(=O)NCCN2CCC(O)CC2)[C@H](c2cccc(Cl)c2)[C@@]12C(=O)Nc1cc(Cl)c(F)cc12 [MI-759]	< 1	5.2 ± 1	1.4 ± 0.6	1.4 ± 0.1	5.5 ± 2.3	–	–
CC(C)(C)C[C@H]1N[C@@H](C(=O)NCC[C@H](O)CO)[C@H](c2cccc(Cl)c2)[C@@]12C(=O)Nc1c(Cl)cccc12 [MI-727]	–	–	–	–	–	–	IC50 [1, 9]: > 10 µM; IC50 [2, 10]: 20.9 ± 1.1 µM; IC50 [2, 11]: 24.1 ± 0.7 µM; IC50 [3, 12]: 12.2 ± 0.5 µM; IC50 [3, 13]: 21.4 ± 4.8 µM
CC(C)(C)C[C@H]1N[C@@H](C(=O)NC2CCNCC2)[C@H](c2cccc(Cl)c2F)[C@@]12C(=O)Nc1cc(Cl)ccc12 [MI-782]	< 1	4.7	0.7	–	–	1.2	–
CC(=O)N1CC(NC(=O)[C@@H]2N[C@H](CC(C)(C)C)[C@]3(C(=O)Nc4cc(Cl)ccc43)[C@H]2c2cccc(Cl)c2F)C1 [MI-915]	< 3	> 30	< 10	< 10	> 30	< 10	–
CN(C)CCC(=O)N1CCN(C(=O)[C@@H]2N[C@H](CC(C)(C)C)[C@]3(C(=O)Nc4cc(Cl)c(F)cc43)[C@H]2c2cccc(Cl)c2)CC1 [MI-746]	< 10	6.7 ± 1.8	2.3 ± 0.1	2.2 ± 0.4	6.9 ± 1.2	–	–
CC(=O)OC(C)(C)C(=O)N1CC(NC(=O)[C@@H]2N[C@H](CC(C)(C)C)[C@]3(C(=O)Nc4cc(Cl)ccc43)[C@H]2c2cccc(Cl)c2F)C1 [MI-914]	< 1	> 10	< 3	< 3	> 5	< 3	–
CC(C)(C)C[C@H]1N[C@@H](C(=O)NCC2CC(O)C(O)C2)[C@H](c2cccc(Cl)c2)[C@@]12C(=O)Nc1cc(Cl)c(F)cc12 (some centres unmarked) [MI-519-37]	< 1	–	–	–	–	–	IC50 ([2]; read-out: HCT-116 (p53-/-) IC50, Table 19A, HCT-116 p53-/-, cell growth): 14.9 ± 2 µM; IC50 ([2]; read-out: HCT-116 (p53 wild-type) IC50, Table 19A, HCT-116 p53 wild-type, cell growth): 1 ± 0.5 µM; IC50 ([3]; Table 19A, LNCAP cells, p53 wild-type, cell growth, read-out: LNCAP (p53 wild-type) IC50): 0.6 ± 0.1 µM; IC50 ([3]; Table 19A, PC-3 cells, deleted p53, cell growth, read-out: PC-3 (deleted p53) IC50): 14 ± 2.2 µM
CC(C)(C)C[C@H]1N[C@@H](C(=O)NC2CCN(CC(C)(C)O)CC2)[C@H](c2cccc(Cl)c2F)[C@@]12C(=O)Nc1cc(Cl)ccc12 [MI-785]	< 0.5	8	0.5	–	–	0.7	–
CC(C)(C)C[C@H]1N[C@@H](C(=O)NC2CCN(CCO)CC2)[C@H](c2cccc(Cl)c2F)[C@@]12C(=O)Nc1cc(Cl)ccc12 [MI-784]	< 0.5	10.3	0.4	–	–	0.7	–
CC(C)CC(C)(C)C[C@H]1N[C@@H](C(=O)NCC[C@H](O)CO)[C@H](c2cccc(Cl)c2F)[C@@]12C(=O)Nc1cc(Cl)c(F)cc12 [MI-731]	–	–	–	–	–	–	IC50 [1, 9]: < 1 µM; IC50 [2, 10]: 6.4 ± 1.7 µM; IC50 [2, 11]: 0.9 ± 0.5 µM; IC50 [3, 12]: 0.8 ± 0.5 µM; IC50 [3, 13]: 5.6 ± 1.9 µM
CC(C)NC(=O)N1CC(NC(=O)[C@@H]2N[C@H](CC(C)(C)C)[C@]3(C(=O)Nc4cc(Cl)ccc43)[C@H]2c2cccc(Cl)c2F)C1 [MI-911]	< 3	> 10	< 5	< 5	> 10	< 5	–
CC(C)CC(C)(C)C[C@H]1N(C)[C@@H](C(=O)NCC[C@H](O)CO)[C@H](c2cccc(Cl)c2)[C@@]12C(=O)Nc1cc(Cl)c(F)cc12 [MI-726]	–	–	–	–	–	–	IC50 [1, 9]: < 5 µM; IC50 [2, 10]: 8 ± 0.8 µM; IC50 [2, 11]: 2.3 ± 0.8 µM; IC50 [3, 12]: 2.3 ± 0.3 µM; IC50 [3, 13]: 5.1 ± 1.4 µM
CC(C)(C)C[C@H]1N[C@@H](C(=O)N2CCN(C(=O)C3CC3)CC2)[C@H](c2cccc(Cl)c2)[C@@]12C(=O)N(C(=O)C1CC1)c1cc(Cl)c(F)cc12 [MI-743B]	–	–	–	–	–	–	IC50 [1, 9]: > 100 µM; IC50 [2, 10]: > 1 µM; IC50 [2, 11]: > 1 µM; IC50 [3, 12]: > 1 µM; IC50 [3, 13]: > 1 µM
CC(C)(C)C[C@H]1N[C@@H](C(=O)NCC[C@@](C)(O)CO)[C@H](c2cccc(Cl)c2F)[C@@]12C(=O)Nc1cc(Cl)ccc12 [MI-790]	< 3	> 10	< 3	< 3	> 10	< 3	–
